# According to patent EP0670321A1, “Oxazopyrroloquinoline deivatives and use thereof” (MITSUBISHI GAS CHEMICAL COMPANY, INC., priority 1994, dated 1995):
# Target: T1, recombinant human aldose reductase (Homo sapiens, UniProt P15121)
# T1 construct: made in house; host or cells: Baculovirus-insect cell system
# Assay: Aldose reductase inhibition (decrease with time in absorbance at 340 nm, NADPH / DL-glyceraldehyde)
# Format: biochemical
# Details: 0.1M phosphoric acid buffer, 25°C, absorbance 340 nm, read-out: IC₅₀
# From the text: A large amount of recombinant human aldose reductase was expressed in a Baculovirus-insect cell system by Nishimura et al method (Nishimura et al, J. Biol. Chem. volume 265, pages 9,788-9,792, 1990 and Biochem. Biophys. Acta. volume 1,078, pages 171-178, 1991; and Tanimoto and Nishimura, Experimental Medicine, volume 9, No. 5 (extra issue), pages 165-170, 1991). Purification was made by affinity chromatography, gel filtration and chromatofocusing until electrophoretically uniform aldose reductase was obtained.
# To 0.1M phosphoric acid buffer solution (0.8 ml) was added 3mM NADPH (0.05 ml), DL-glyceral-dehyde (0.1 ml) and distilled water (0.04 ml). The mixture was left to stand at 25°C for three minutes. To the mixture was added aldose reductase solution (0.01 ml) in order to start a reaction. Measurement was made of reduction with time in absorbance of 340 nm at 25°C. The amount of enzyme that consumes 1µ mole of […] per minute was taken as a unit.
# Enzyme activities were measured after aqueous inhibiting substance solution (0.04 ml each) having various concentrations in place of the distilled water (0.04 ml) under the same conditions as those for aldose reductase. IC₅₀ values that inhibit enzyme activity by 50% were calculated on the basis of enzyme activities measured in the presence or absence of the inhibitors. The inhibitors used include: 8,10-dicarboxy-2-methoxycarbonyl-1H-oxazo[5,4-h] pyrrolo[2,3-f]quinoline (Compound 1, abbreviated OPQ-8,10-DCA-2-ME); 8-carboxy-2,10-dimethoxycarbonyl-1H-oxazo[5,4-h] pyrrolo-[2,3-f]quinoline (Compound 2, abbreviated OPQ-8-CA-2,10-DME); 10-(N-n-amyl)carbamoyl-2,8-dicarboxy-1H-oxazo [5,4-h]pyrrolo[2,3-f]quinoline (Compound 3, abbreviated OPQ-2,8-DCA-10-AA); 10-(N-n-amyl)carbamoyl-8-carboxy-2-methoxy-carbonyl-1H-oxazo[5,4-h]pyrrolo[2,3-f]quinoline (Compound 4, abbreviated OPQ-8-CA-2-ME-10-AA); 2,10-dicarboxy-8-methoxycarbonyl-1H-oxazo[5,4-h] pyrrolo-[2,3-f]quinoline (abbreviated OPQ-2,10-DCA-8-ME); 10-carboxy-2,8-dimethoxycarbonyl-1H-oxazo[5,4-h] pyrrolo-[2,3-f]quinoline (abbreviated OPQ-10-CA-2,8-DME); 2,8,10-trimethoxycarbonyl-1H-oxazo[5,4-h]pyrrolo [2,3-f]-quinoline (abbreviated OPQ-2,8,10-TME); 10-carboxy-2-methoxycarbonyl-1H-oxazo[5,4-h] pyrrolo-[2,3-f]quinoline (abbreviated OPQ-10-CA-2-ME); 8,10-diethoxycarbonyl-2-methoxycarbonyl-1H-oxazo [5,4-hj]yrrolo[2,3-f]quinoline (abbreviated OPQ-2-ME-8,10-DME); 10-(N-n-amyl) carbamoyl-2,8-dimethoxycarbonyl-1H-oxazo[5,4-h]pyrrolo[2,3-f]quinoline (abbreviated OPQ-2,8-DME-10-AA); and 2,8,10-tri[(N-n-amyl)carbamoyl]-1H-oxazo[5,4-h] pyrrolo-[2,3-f]quinoline (abbreviated OPQ-2,8,10-TAA).
row,SMILES,IC50
1,"COC(=O)c1cc2c([nH]1)c1c(C(=O)O)ccnc1c1ncoc21 [OPQ-10-CA-2ME, 10-carboxy-2-methoxycarbonyl-1H-oxazo[5,4-h] pyrrolo-[2,3-f]quinoline]",1700 nM
2,"CCCCCNC(=O)c1cc(C(=O)O)nc2c3ncoc3c3cc(C(=O)OC)[nH]c3c12 [Compound 4, 10-(N-n-amyl)carbamoyl-8-carboxy-2-methoxy-carbonyl-1H-oxazo[5,4-h]pyrrolo[2,3-f]quinoline]",190 nM
3,"COC(=O)c1cc(C(=O)OC)c2c(n1)c1ncoc1c1cc(C(=O)OC)[nH]c12 [OPQ-2,8,10-TME, 2,8,10-trimethoxycarbonyl-1H-oxazo[5,4-h]pyrrolo [2,3-f]-quinoline]",> 100000 nM
4,"COC(=O)c1cc2c([nH]1)c1c(C(=O)OC)cc(C(=O)O)nc1c1ncoc21 [Compound 2, 8-carboxy-2,10-dimethoxycarbonyl-1H-oxazo[5,4-h] pyrrolo-[2,3-f]quinoline]",580 nM
5,"COC(=O)c1cc(C(=O)O)c2c(n1)c1ncoc1c1cc(C(=O)OC)[nH]c12 [OPQ-10-CA-2,8-DME, 10-carboxy-2,8-dimethoxycarbonyl-1H-oxazo[5,4-h] pyrrolo-[2,3-f]quinoline]",1300 nM
6,"COC(=O)c1cc2c([nH]1)c1c(C(=O)O)cc(C(=O)O)nc1c1ncoc21 [Compound 1, 8,10-dicarboxy-2-methoxycarbonyl-1H-oxazo[5,4-h] pyrrolo[2,3-f]quinoline]",260 nM
7,"COC(=O)c1cc(C(=O)O)c2c(n1)c1ncoc1c1cc(C(=O)O)[nH]c12 [OPQ-2,10-DCA-8-ME, 2,10-dicarboxy-8-methoxycarbonyl-1H-oxazo[5,4-h] pyrrolo-[2,3-f]quinoline]",2900 nM
8,"CCCCCNC(=O)c1cc(C(=O)O)nc2c3ncoc3c3cc(C(=O)O)[nH]c3c12 [Compound 3, 10-(N-n-amyl)carbamoyl-2,8-dicarboxy-1H-oxazo [5,4-h]pyrrolo[2,3-f]quinoline]",260 nM
9,"CCCCCNC(=O)c1cc(C(=O)NCCCCC)c2c(n1)c1ncoc1c1cc(C(=O)NCCCCC)[nH]c12 [OPQ-2,8,10-TAA, 2,8,10-tri[(N-n-amyl)carbamoyl]-1H-oxazo[5,4-h] pyrrolo-[2,3-f]quinoline]",77000 nM
10,"CCCCCNC(=O)c1cc(C(=O)OC)nc2c3ncoc3c3cc(C(=O)OC)[nH]c3c12 [OPQ-2,8-DME-10-AA, 10-(N-n-amyl) carbamoyl-2,8-dimethoxycarbonyl-1H-oxazo[5,4-h]pyrrolo[2,3-f]quinoline]",93000 nM
11,"CCOC(=O)c1cc(C(=O)OCC)c2c(n1)c1ncoc1c1cc(C(=O)OC)[nH]c12 [OPQ-2ME-8,10-DEE, 8,10-diethoxycarbonyl-2-methoxycarbonyl-1H-oxazo [5,4-hj]yrrolo[2,3-f]quinoline]",> 100000 nM
